Columns and labels:
[1] = tested on: Kunming mice; assay: Acute toxicity / median lethal dose (LD50) determination, subcutaneous injection; type: in vivo; set-up: key to Acute toxicity: if death occurred, (+) represented as positive; if no death occurred, (−) represented as negative; conditions: mice administered 20 mg/kg subcutaneously, presence of death within 24 h
Procedure: (§1) The experimental animals were Kunming mice (male:female=1:1), weighed 22+2 g, which were provided by Chengdu dossy experimental animals Co., ltd., China. The mice were kept in the animal room of the School of Life Science and Engineering, Southwest Jiaotong University, where the animal room was set at a temperature of 23±2° C., a humidity of […] and a photoperiod of 16:8 h (L:D). Before the experiment, the mice were freely fed for 2-3 days with water and feed to adapt to the new environment. Then, the mice were treated by water and food fasting for 12 h. 10 animals were allocated to each group to ensure that there are at least 6 sets of valid data in each group. The animal experiments were carried out in strict accordance with the national regulations on the management of experimental animals.
(§2) The compounds prepared in the examples provided herein (test sample set) and bulleyaconitine A (positive control set) were all dissolved with 0.1 mol/L HCl according to a molar ratio of 1:1, and then diluted with physiological saline to a concentration to be determined. Blank control was physiological saline containing 0.1 mol/L HCl. The animals in the control groups were subjected to the same treatment as those in experimental groups except that samples to be test were replaced with physiological saline.
(2) Median Lethal Dose (LD50) Determination
The sample to be tested was dissolved with 0.1 mol/L HCl according to the amount of the substance ratio of 1:1, and diluted with physiological saline according to the required concentration. 10 mice in each group were randomly selected, half of which were male and half of which were female, and were placed in independent cages. Each mouse was injected subcutaneously with different sample solutions to be tested according to a dose of 0.1 mL/10 g body weight. In the preliminary toxicity experiment, the measured concentration was 20 mg/kg, and then based on the survival rate of the experimental animals in the preliminary experiment, the sample to be tested was set to at least 5 groups with different concentration dose according to the proportional series. The survival rate of mice within 24 h was recorded. The obtained dose-survival rate data was input into the SPSS software (version 17.2), and the LD50 of the sample was calculated according to the Probit regression method.

[2] = tested on: Kunming mice; assay: Analgesic activity by acetic acid-induced writhing method (writhing inhibition rate, ED50); type: in vivo; conditions: Mus musculus, sc, read-out: Analgesia rate (%) ± SEM
Procedure: as §1, §2
(1) Determination of Analgesic Activity Through an Acetic Acid-Induced Writhing Method
10 mice were randomly selected, male:female=1:1, were placed in independent cages. Each mouse was injected subcutaneously with the sample solution mentioned above at a dose of 0.1 mL/10 g body weight. After 15 min, a 0.7% acetic acid solution was intraperitoneally injected. A number of writhing reactions in each mouse within 15 minutes was recorded. The group that the mice were injected with physiological saline subcutaneously was the blank group; the group that the mice were injected with the sample to be tested was the experimental group; and the group that the mice were injected with bulleyaconitine A was the positive group. The analgesic activity was represented by a percentage of the reduced number of writhing compared to the blank group (writhing inhibition rate), which were specifically as follows: writhing inhibition rate (analgesic activity)=(average number of writhing times in the blank group-average number of writhing times in the experimental group)/average number of writhing times in the blank group×100%.
Median Effective Dose (ED50) Determination
The sample to be tested was dissolved with 0.1 mol/L HCl according to the amount of the substance ratio of 1:1, and diluted with physiological saline according to the proportional series to obtain at least 5 groups with different dose concentrations. The writhing inhibition rate of each dose group was tested according to the acetic acid-induced writhing method mentioned above. The obtained dose-writhing inhibition data was entered into the statistical product and service solutions (SPSS) software (version 17.2), and the ED50 of the sample to be tested was calculated through the Probit regression method.

Structure (SMILES)	Acute toxicity [1]	inhibition in vivo at 0.05 mg/kg [2] [%]
CCN1C[C@]2(COC)CC[C@H](OC)[C@@]34C5C[C@]6(O)[C@@H](OC)C[C@@](OC)(C5[C@H]6OC(=O)c5ccc(OC)cc5)C([C@H](OC)C23)[C@@H]14 (stereo partly shown) [Compound 1]	+	25.5 ± 2.9
CCO[C@]12C[C@H](OC)[C@@]3(O)CC(C1[C@H]3OC(=O)c1ccc(OC)cc1)[C@]13C4[C@@H](OC)C2[C@H]1N(CC)C[C@]4(COC)CC[C@@H]3OC (stereo partly shown) [Compound 2]	+	41.1 ± 1.8
CCN1C[C@@]2(COC)C3[C@@H](OC)C4[C@@H]1[C@@]3(C1C[C@]3(O)[C@@H](OC)C[C@@]4(OC)C1[C@H]3O)[C@@H](OC)C[C@H]2O (stereo partly shown) [Compound 3]	−	9.78 ± 1.9
CCO[C@]12C[C@H](OC)[C@@]3(O)CC(C1[C@H]3O)[C@]13C4[C@@H](OC)C2[C@H]1N(CC)C[C@]4(COC)CC[C@@H]3OC (stereo partly shown) [Compound 4]	−	5.63 ± 1.1
CCO[C@]12C[C@H](OC)[C@@]3(OC(=O)C(C)Cl)CC(C1[C@H]3OC(=O)C(C)Cl)[C@]13C4[C@@H](OC)C2[C@H]1N(CC)C[C@]4(COC)CC[C@@H]3OC (stereo partly shown) [Compound 7]	−	22.8 ± 3.3
CCO[C@]12C[C@H](OC)[C@@]3(OC(=O)C4CC4)CC(C1[C@H]3OC(=O)C1CC1)[C@]13C4[C@@H](OC)C2[C@H]1N(CC)C[C@]4(COC)CC[C@@H]3OC (stereo partly shown) [Compound 8]	−	37.1 ± 1.2
CCN1C[C@]2(COC)CC[C@H](OC)[C@@]34C5C[C@]6(OC(=O)c7ccc(OC)cc7)[C@@H](OC)C[C@@](OC(C)=O)(C5[C@H]6OC(=O)c5ccc(OC)cc5)C([C@H](OC)C23)[C@@H]14 (stereo partly shown) [Compound 9]	−	33.5 ± 1.9
CCN1C[C@]2(COC)CC[C@H](OC)[C@@]34C5C[C@]6(OC(=O)C7CC7)[C@@H](OC)C[C@@](OC(C)=O)(C5[C@H]6OC(=O)c5ccc(OC)cc5)C([C@H](OC)C23)[C@@H]14 (stereo partly shown) [Compound 10]	−	15.2 ± 1.9
CCN1C[C@]2(COC)CC[C@H](OC)[C@@]34C5C[C@]6(OC(=O)C7CCCCC7)[C@@H](OC)C[C@@](OC(C)=O)(C5[C@H]6OC(=O)c5ccc(OC)cc5)C([C@H](OC)C23)[C@@H]14 (stereo partly shown) [Compound 11]	−	35.1 ± 1.2
CCO[C@]12C[C@H](OC)[C@@]3(OC(=O)C4CC4)CC(C1[C@H]3OC(=O)c1ccc(OC)cc1)[C@]13C4[C@@H](OC)C2[C@H]1N(CC)C[C@]4(COC)CC[C@@H]3OC (stereo partly shown) [Compound 16]	−	36.7 ± 1.2
CCO[C@]12C[C@H](OC)[C@@]3(OC(=O)c4ccc(Cl)s4)CC(C1[C@H]3OC(=O)c1ccc(Cl)s1)[C@]13C4[C@@H](OC)C2[C@H]1N(CC)C[C@]4(COC)CC[C@@H]3OC (stereo partly shown) [Compound 18]	−	13.4 ± 0.6
CCO[C@]12C[C@H](OC)[C@@]3(OC(=O)c4cccs4)CC(C1[C@H]3OC(=O)c1ccc(OC)cc1)[C@]13C4[C@@H](OC)C2[C@H]1N(CC)C[C@]4(COC)CC[C@@H]3OC (stereo partly shown) [Compound 19]	−	7.13 ± 2.8
CCO[C@]12C[C@H](OC)[C@@]3(OC(=O)c4ccc(Cl)s4)CC(C1[C@H]3OC(=O)c1ccc(OC)cc1)[C@]13C4[C@@H](OC)C2[C@H]1N(CC)C[C@]4(COC)CC[C@@H]3OC (stereo partly shown) [Compound 20]	−	0
CCN1C[C@]2(COC)CC[C@H](OC)[C@@]34C5C[C@]6(OC(=O)c7cccs7)[C@@H](OC)C[C@@](OC(C)=O)(C5[C@H]6OC(=O)c5ccc(OC)cc5)C([C@H](OC)C23)[C@@H]14 (stereo partly shown) [Compound 21]	−	0

— US20260022098A1, “BULLEYACONITINE A DERIVATIVE WITH ANALGESIC ACTIVITY, AND PREPARATION METHOD AND APPLICATION THEREOF” (priority 2023, published 2026)
